Structures are written as SMILES. Bounds are passed on as bounds.

PD-1/PD-L1, sequence (Q9NZQ7 19-238): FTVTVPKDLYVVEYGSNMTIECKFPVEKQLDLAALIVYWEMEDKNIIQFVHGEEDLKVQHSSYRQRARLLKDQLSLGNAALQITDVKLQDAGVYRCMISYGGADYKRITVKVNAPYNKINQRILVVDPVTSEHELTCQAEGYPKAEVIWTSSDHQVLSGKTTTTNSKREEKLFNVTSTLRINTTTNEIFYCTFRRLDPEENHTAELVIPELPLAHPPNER

The test deals with PD-1/PD-L1 (Homo sapiens (Human), UniProt Q9NZQ7). The test can be described thus: PD-1/PD-L1 binding assay (HTRF). Put shortly:
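HTRF read-out (665/620 nm) after 60 min at 25 °C with 1 nM Eu anti-human IgG and 20 nM APC anti-His. Beforehand, inhibitors were preincubated 40 min with Fc-PD-1 (25-167, […] as listed) and His-PD-L1 (19-238, 10 nM) in PBS pH 7.4 with Tween-20, BSA, 1% DMSO; IC50 from log-concentration curve.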
Take `CN1CCc2c(nc(C(=O)Nc3cccc(-c4cccc(NC(=O)c5nc6c(n5C)CCN(CC[C@H]5CC[C@H](C(=O)O)CC5)C6)c4Cl)c3C#N)n2C)C1` [Compound 150, trans-4-(2-(2-(2-chloro-2′-cyano-3′-(1,5-dimethyl-4,5,6,7-tetrahydro-1H-imidazo[4,5-c]pyridine-2-carboxamido)biphenyl-3-ylcarbamoyl)-1-methyl-6,7-dihydro-1H-imidazo[4,5-c]pyridin-5(4H)-yl)ethyl)cyclohexane-1-carboxylic acid]: the IC50 was ≤ 10 nM.
With `Cc1c(NC(=O)c2nc3c(n2C)CCN(C2CCC(C)(C(=O)O)CC2)C3)cccc1-c1cccc(NC(=O)c2nc3c(n2C)CCN(C2CCOCC2)C3)c1Cl` (centres unmarked) [Example 108, 4-(2-((2′-chloro-2-methyl-3′-(1-methyl-5-(tetrahydro-2H-pyran-4-yl)-4,5,6,7-tetrahydro-1H-imidazo[4,5-c]pyridine-2-carboxamido)-[1,1′-biphenyl]-3-yl)carbamoyl)-1-methyl-1,4,6,7-tetrahydro-5H-imidazo[4,5-c]pyridin-5-yl)-1-methylcyclohexane-1-carboxylic acid], the IC50 was ≤ 10 nM.
As for `Cc1c(NC(=O)c2nc3c(n2C)CCN(C2CCC(C)(C(=O)O)CC2)C3)cccc1-c1cccc(NC(=O)c2nc3c(n2C)CCN(C(C)C)C3)c1Cl` (centres unmarked) [Example 106, 4-(2-((2′-chloro-3′-(5-isopropyl-1-methyl-4,5,6,7-tetrahydro-1H-imidazo[4,5-c]pyridine-2-carboxamido)-2-methyl-[1,1′-biphenyl]-3-yl)carbamoyl)-1-methyl-1,4,6,7-tetrahydro-5H-imidazo[4,5-c]pyridin-5-yl)-1-methylcyclohexane-1-carboxylic acid], the concentration for half-maximal inhibition (IC50) was ≤ 10 nM.
As for `CN1CCc2c(nc(C(=O)Nc3cccc(-c4cccc(NC(=O)c5nc6c(n5C)CCN(CCC5CCC(C(=O)O)CC5)C6)c4Cl)c3Cl)n2C)C1` (centres unmarked) [Compound 77-1, 4-(2-(2-((2,2′-dichloro-3′-(1,5-dimethyl-4,5,6,7-tetrahydro-1H-imidazo[4,5-c]pyridine-2-carboxamido)-[1,1′-biphenyl]-3-yl)carbamoyl)-1-methyl-1,4,6,7-tetrahydro-5H-imidazo[4,5-c]pyridin-5-yl)ethyl)cyclohexane-1-carboxylic acid], the figure is ≤ 10 nM; as for `Cn1c(C(=O)Nc2cccc(-c3cccc(NC(=O)c4nc5c(n4C)CCN(C4CCOCC4)C5)c3Cl)c2Cl)nc2c1CCN(CC13CCC(C(=O)O)(CC1)C3)C2` [Compound 179, 4-((2-(2,2′-dichloro-3′-(1-methyl-5-(tetrahydro-2H-pyran-4-yl)-4,5,6,7-tetrahydro-1H-imidazo[4,5-c]pyridine-2-carboxamido)biphenyl-3-ylcarbamoyl)-1-methyl-6,7-dihydro-1H-imidazo[4,5-c]pyridin-5(4H)-yl)methyl)bicyclo[2.2.1]heptane-1-carboxylic acid], 10 to 100 nM.
On to `Cc1c(NC(=O)c2nc3c(n2C)CCN(C2CCOCC2)C3)cccc1-c1cccc(NC(=O)c2nc3c(n2C)CCN(C)C3)c1Cl` [Example 29, N-(2-chloro-2′-methyl-3′-(1-methyl-5-(tetrahydro-2H-pyran-4-yl)-4,5,6,7-tetrahydro-1H-imidazo[4,5-c]pyridine-2-carboxamido)biphenyl-3-yl)-1,5-dimethyl-4,5,6,7-tetrahydro-1H-imidazo[4,5-c]pyridine-2-carboxamide], for which the IC50 is ≤ 10 nM.
With `Cc1c(NC(=O)c2nc3c(n2C)CCN(C[C@@H](C)O)C3)cccc1-c1cccc(NC(=O)c2nc3c(n2C)CCN(C2CCC(C)(C(=O)O)CC2)C3)c1Cl` (mixture of isomers) [Compound 141, (R)-4-(2-((2-chloro-3′-(5-(2-hydroxypropyl)-1-methyl-4,5,6,7-tetrahydro-1H-imidazo[4,5-c]pyridine-2-carboxamido)-2′-methyl-[1,1′-biphenyl]-3-yl)carbamoyl)-1-methyl-1,4,6,7-tetrahydro-5H-imidazo[4,5-c]pyridin-5-yl)-1-methylcyclohcxane-1-carboxylic acid], the IC50 was ≤ 10 nM.
On to `C[C@H](O)CN1CCc2c(nc(C(=O)Nc3cccc(-c4cccc(NC(=O)c5nc6c(n5C)CCN(C[C@H]5CC[C@H](C(=O)O)CC5)C6)c4Cl)c3Cl)n2C)C1` [Example 66, trans-4-((2-((2,2′-dichloro-3′-(5-((S)-2-hydroxypropyl)-1-methyl-4,5,6,7-tetrahydro-1H-imidazo[4,5-c]pyridine-2-carboxamido)-[1,1′-biphenyl]-3-yl)carbamoyl)-1-methyl-1,4,6,7-tetrahydro-5H-imidazo[4,5-c]pyridin-5-yl)methyl)cyclohexane-1-carboxylic acid], for which the IC50 was ≤ 10 nM.
For the compound `Cc1c(NC(=O)c2nc3c(n2C)CCN(CC2CC2)C3)cccc1-c1cccc(NC(=O)c2nc3c(n2C)CCN(CC[C@H]2CC[C@H](C(=O)O)CC2)C3)c1Cl` [Example 128, trans-4-(2-(2-((2-chloro-3′-(5-(cyclopropylmethyl)-1-methyl-4,5,6,7-tetrahydro-1H-imidazo[4,5-c]pyridine-2-carboxamido)-2′-methyl-[1,1′-biphenyl]-3-yl)carbamoyl)-1-methyl-1,4,6,7-tetrahydro-5H-imidazo[4,5-c]pyridin-5-yl)ethyl)cyclohexane-1-carboxylic acid], the IC50 is ≤ 10 nM.
Regarding `Cc1c(NC(=O)c2nc3c(n2C)CCN(C[C@H](C)O)C3)cccc1-c1cccc(NC(=O)c2nc3c(n2C)CCN(CCO)C3)c1Cl` [Example 42, (S)—N-(2′-chloro-3′-(5-(2-hydroxyethyl)-1-methyl-4,5,6,7-tetrahydro-1H-imidazo[4,5-c]pyridine-2-carboxamido)-2-methylbiphenyl-3-yl)-5-(2-hydroxypropyl)-1-methyl-4,5,6,7-tetrahydro-1H-imidazo[4,5-c]pyridine-2-carboxamide], the IC50 was ≤ 10 nM.
As to `Cn1c(C(=O)Nc2cccc(-c3cccc(NC(=O)c4nc5c(n4C)CCN(C4CCOCC4)C5)c3Cl)c2Cl)nc2c1CCN(C[C@H]1CC[C@@H](C(=O)O)CC1)C2` [Example 73, cis-4-((2-((2,2′-dichloro-3′-(1-methyl-5-(tetrahydro-2H-pyran-4-yl)-4,5,6,7-tetrahydro-1H-imidazo[4,5-c]pyridine-2-carboxamido)-[1,1′-biphenyl]-3-yl)carbamoyl)-1-methyl-1,4,6,7-tetrahydro-5H-imidazo[4,5-c]pyridin-5-yl)methyl)cyclohexane-1-carboxylic acid], the IC50 is ≤ 10 nM.
In the case of `CCN1CCc2c(nc(C(=O)Nc3cccc(-c4cccc(NC(=O)c5nc6c(n5C)CCN(CC[C@H]5CC[C@H](C(=O)O)CC5)C6)c4Cl)c3C#N)n2C)C1` [Compound 151, trans-4-(2-(2-((2-chloro-2′-cyano-3′-(5-ethyl-1-methyl-4,5,6,7-tetrahydro-1H-imidazo[4,5-c]pyridine-2-carboxamido)-[1,1′-biphenyl]-3-yl)carbamoyl)-1-methyl-1,4,6,7-tetrahydro-5H-imidazo[4,5-c]pyridin-5-yl)ethyl)cyclohexane-1-carboxylic acid], the 50% inhibitory concentration (IC50) was ≤ 10 nM.
For the compound `Cc1c(NC(=O)c2nc3c(n2C)CCN(C2CCCCC2)C3)cccc1-c1cccc(NC(=O)c2nc3c(n2C)CCN(CC[C@H]2CC[C@H](C(=O)O)CC2)C3)c1Cl` [Example 131, trans-4-(2-(2-((2-chloro-3′-(5-cyclohexyl-1-methyl-4,5,6,7-tetrahydro-1H-imidazo[4,5-c]pyridine-2-carboxamido)-2′-methyl-[1,1′-biphenyl]-3-yl)carbamoyl)-1-methyl-1,4,6,7-tetrahydro-5H-imidazo[4,5-c]pyridin-5-yl)ethyl)cyclohexane-1-carboxylic acid], the half-inhibitory concentration (IC50) was ≤ 10 nM.
As for `Cc1c(NC(=O)c2nc3c(n2C)CCNC3)cccc1-c1cccc(NC(=O)c2nc3c(n2C)CCN(CC[C@H]2CC[C@H](C(=O)O)CC2)C3)c1Cl` [Example 126, trans-4-(2-(2-((2-chloro-2′-methyl-3′-(1-methyl-4,5,6,7-tetrahydro-1H-imidazo[4,5-c]pyridine-2-carboxamido)-[1,1′-biphenyl]-3-yl)carbamoyl)-1-methyl-1,4,6,7-tetrahydro-5H-imidazo[4,5-c]pyridin-5-yl)ethyl)cyclohexane-1-carboxylic acid], the figure is ≤ 10 nM; as for `CCN(C)CCC(=O)N1Cc2nc(-c3cccc(-c4cccc(NC(=O)c5nc6c(n5C)CCN(C5CCC(C)(C(=O)O)CC5)C6)c4Cl)c3Cl)oc2C1` (centres unmarked) [Compound 174, 4-(2-((2,2′-dichloro-3′-(5-(3-(ethyl(methyl)amino)propanoyl)-5,6-dihydro-4H-pyrrolo[3,4-d]oxazol-2-yl)-[1,1′-biphenyl]-3-yl)carbamoyl)-1-methyl-1,4,6,7-tetrahydro-5H-imidazo[4,5-c]pyridin-5-yl)-1-methylcyclohexane-1-carboxylic acid], ≤ 10 nM; as for `Cc1c(NC(=O)c2nc3c(n2C)CCN(CC2CCOCC2)C3)cccc1-c1cccc(NC(=O)c2nc3c(n2C)CCN(C)C3)c1Cl` [Example 30, N-(2-chloro-2′-methyl-3′-(1-methyl-5-((tetrahydro-2H-pyran-4-yl)methyl)-4,5,6,7-tetrahydro-1H-imidazo[4,5-c]pyridine-2-carboxamido)biphenyl-3-yl)-1,5-dimethyl-4,5,6,7-tetrahydro-1H-imidazo[4,5-c]pyridine-2-carboxamide], ≤ 10 nM.
As for `Cc1c(NC(=O)c2nc3c(n2C)CCN(C)C3)cccc1-c1cccc(NC(=O)c2nc3c(n2C)CCN(CCc2ccc(C(=O)O)cc2)C3)c1Cl` [Example 117, 4-(2-(2-((2-chloro-3′-(1,5-dimethyl-4,5,6,7-tetrahydro-1H-imidazo[4,5-c]pyridine-2-carboxamido)-2′-methyl-[1,1′-biphenyl]-3-yl)carbamoyl)-1-methyl-1,4,6,7-tetrahydro-5H-imidazo[4,5-c]pyridin-5-yl)ethyl)benzoic acid], the IC50 was ≤ 10 nM.
